The structures appear in SMILES notation. pEC50: −log10 of the molar value. Like-named read-outs stand apart in the source and are kept apart here. Bounds are passed on as bounds.

The record followed here is patent publication US20180099931A1 (AbbVie S.à.r.l., priority 2016, published 2018).

The experiment has as its target T1, F508delCFTR (Homo sapiens, UniProt P13569, DEL508-508).
T1 construct: expressed in transfected cells; host or cells: CFBE41o- human lung-derived epithelial cells (CFBE4lo-F508delCFTR-HRP), doxycycline-inducible
The experiment can be described thus: Cell Surface Expression-Horse Radish Peroxidase (CSE-HRP) Assay.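 As to Maximum % activity (with co-corrector): co-corrector and positive control are both the same reference corrector at 2 µM.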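 As to Maximum % activity (without co-corrector): percent of the 2 µM on-plate positive control corrector response above DMSO.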 In kind it is cell-based. Particulars: for Maximum % activity (with co-corrector) / Emax: maximum at any tested concentration, normalized to on-plate positive control; for Emax: read-out: Maximum % activity (without co-corrector).

The mark [1] stands for this setting: CSE-HRP, test compound without co-corrector, read-out: EC50 (without co-corrector).
Setting [2] is: CSE-HRP, with co-corrector (2 μM of 3-[(2R,4R)-4-({[1-(2,2-difluoro-1,3-benzodioxol-5-yl)cyclopropyl]carbonyl}amino)-7-methoxy-3,4-dihydro-2H-chromen-2-yl]benzoic acid), read-out: EC50 (with co-corrector).
[3] abbreviates: CSE-HRP, with co-corrector (2 μM).
The mark [4] stands for this setting: test compound without co-corrector.
[5] abbreviates: test compound without co-corrector, read-out: EC50 (without co-corrector).
Setting [6] is: with co-corrector (2 μM of 3-[(2R,4R)-4-({[1-(2,2-difluoro-1,3-benzodioxol-5-yl)cyclopropyl]carbonyl}amino)-7-methoxy-3,4-dihydro-2H-chromen-2-yl]benzoic acid), read-out: EC50 (with co-corrector).

T1 sequence (P13569 with tags, fused parts or gaps DEL508-508): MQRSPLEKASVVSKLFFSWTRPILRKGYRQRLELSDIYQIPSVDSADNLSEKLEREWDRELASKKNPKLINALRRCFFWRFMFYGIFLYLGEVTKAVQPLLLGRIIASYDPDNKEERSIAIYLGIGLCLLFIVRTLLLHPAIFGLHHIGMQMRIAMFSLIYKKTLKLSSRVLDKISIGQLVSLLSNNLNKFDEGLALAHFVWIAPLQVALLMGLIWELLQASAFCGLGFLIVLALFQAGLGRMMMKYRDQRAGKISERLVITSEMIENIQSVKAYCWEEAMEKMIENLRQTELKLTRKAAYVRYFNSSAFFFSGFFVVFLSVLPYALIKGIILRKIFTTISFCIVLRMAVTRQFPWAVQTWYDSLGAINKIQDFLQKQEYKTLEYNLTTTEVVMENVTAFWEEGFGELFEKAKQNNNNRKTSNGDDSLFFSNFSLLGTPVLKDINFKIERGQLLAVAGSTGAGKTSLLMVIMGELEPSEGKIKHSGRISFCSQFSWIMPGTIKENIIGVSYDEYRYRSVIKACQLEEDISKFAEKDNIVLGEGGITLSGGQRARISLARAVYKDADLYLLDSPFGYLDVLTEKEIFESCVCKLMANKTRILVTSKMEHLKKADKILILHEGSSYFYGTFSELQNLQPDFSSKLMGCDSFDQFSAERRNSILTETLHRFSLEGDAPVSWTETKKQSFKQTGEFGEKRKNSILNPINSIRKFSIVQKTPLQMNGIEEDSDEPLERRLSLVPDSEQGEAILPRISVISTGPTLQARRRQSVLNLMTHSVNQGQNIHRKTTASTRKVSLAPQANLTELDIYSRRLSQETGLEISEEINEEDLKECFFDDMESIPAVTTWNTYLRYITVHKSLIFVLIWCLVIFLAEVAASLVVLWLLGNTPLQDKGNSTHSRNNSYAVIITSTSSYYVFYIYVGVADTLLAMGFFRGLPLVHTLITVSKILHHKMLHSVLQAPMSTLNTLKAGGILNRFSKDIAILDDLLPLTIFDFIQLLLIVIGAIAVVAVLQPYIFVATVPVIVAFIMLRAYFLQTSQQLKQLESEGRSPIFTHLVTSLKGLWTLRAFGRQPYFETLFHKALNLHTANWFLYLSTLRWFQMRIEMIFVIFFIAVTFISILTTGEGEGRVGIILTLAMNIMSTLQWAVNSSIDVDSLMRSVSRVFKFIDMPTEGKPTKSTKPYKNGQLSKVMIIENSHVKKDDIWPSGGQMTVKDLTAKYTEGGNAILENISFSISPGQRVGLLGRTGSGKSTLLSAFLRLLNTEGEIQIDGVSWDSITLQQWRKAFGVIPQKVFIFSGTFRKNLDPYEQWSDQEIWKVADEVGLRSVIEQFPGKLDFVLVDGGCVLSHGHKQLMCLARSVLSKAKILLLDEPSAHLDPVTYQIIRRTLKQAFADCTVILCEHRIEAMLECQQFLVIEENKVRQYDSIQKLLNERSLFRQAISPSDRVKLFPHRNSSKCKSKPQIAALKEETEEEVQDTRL

For the molecule `CC(C)(C)[C@H]1[C@H](NCc2cc(Cl)cc(Cl)c2)[C@H](c2ccccc2)N(C(=O)C2CCCCC2)[C@@H]1C(=O)O` [II-111], the pEC50 (commonly the EC50 on a negative log10 scale, so that one unit is a factor of ten) by setting is: under setting [1], 5.00 to 6.00; under setting [2], 5.00 to 6.00. Under setting [3], the “Maximum % activity (with co-corrector)” value is “++ (≥150 and <350)”. For the same molecule, the Emax (CSE-HRP, without co-corrector) is below 100%.

Take `Cc1cc(C(F)(F)F)cc(N[C@H]2[C@H](C(C)(C)C)[C@@H](C(=O)O)N(C(=O)[C@H]3CCCCO3)[C@H]2c2cccnc2N(C)C)n1` [III-216]: the Emax under setting [4] was below 100%. Also, the pEC50 under setting [5] is 5.00 to 6.00 and the pEC50 under setting [6] was 5.00 to 6.00. Further, the “Maximum % activity (with co-corrector)” value (with co-corrector (2 μM)) is “++ (≥150 and <350)”.

For the molecule `COc1ccc(C(C)(C)C)cc1CN[C@H]1[C@H](C(C)(C)C)[C@@H](C(=O)O)N(C(=O)Cc2nn(C)c(=O)c3ccccc23)[C@H]1c1ccccc1` [II-221], the pEC50 under setting [1] was 5.00 to 6.00 and the pEC50 under setting [2] is 5.00 to 6.00. For the same molecule, under setting [3], the “Maximum % activity (with co-corrector)” value is “+++ (≥350)”. Moreover, where the note is “CSE-HRP, without co-corrector”, the Emax lay within 100 to 200%.

With `COc1nc(C(C)(C)C)ccc1CN[C@H]1[C@H](C23CC(C2)C3)[C@@H](C(=O)O)N(C(=O)OC(C)C)[C@H]1c1ccccc1` [Example 70, (2S,3S,4S,5S)-3-(bicyclo[1.1.1]pentan-1-yl)-4-{[(6-tert-butyl-2-methoxypyridin-3-yl)methyl]amino}-5-phenyl-1-{[(propan-2-yl)oxy]carbonyl}pyrrolidine-2-carboxylic acid], the pEC50 reads like this: under setting [5], 5.00 to 6.00; under setting [6], 5.00 to 6.00. Moreover, the “Maximum % activity (with co-corrector)” value (with co-corrector (2 μM)) was “+++ (≥350)”. Also, the Emax (without co-corrector) was in the range of 100 to 200%.

As to `COc1ccc(C(C)(C)C)cc1CN[C@H]1[C@H](C(C)(C)C)[C@@H](C(=O)O)N(C(=O)CC2CCCCC2)[C@H]1c1ccccc1` [III-167], the Emax under setting [4] was above 200%. The pEC50 was 5.00 to 6.00 under setting [5] and above 6.00 under setting [6]. Besides, where the note is “with co-corrector (2 μM)”, the “Maximum % activity (with co-corrector)” value is reported as “+++ (≥350)”.

Take `COc1ccc(C(F)(F)F)cc1CN[C@H]1[C@H](C(C)(C)C)[C@@H](C(=O)O)N(C(=O)C2CCC(C)(C)O2)[C@H]1c1ccccc1` (some centres unmarked) [Example I-164]: the pEC50 reads like this: under setting [5], 5.00 to 6.00; under setting [6], 5.00 to 6.00. Moreover, the “Maximum % activity (with co-corrector)” value (with co-corrector (2 μM)) was “+++ (≥350)”. Further, the Emax (without co-corrector) is above 200%.

On to `COc1cccc(-c2ccc(OC)c(CN[C@H]3[C@H](C(C)(C)C)[C@@H](C(=O)O)N(C(=O)C4CCCCC4)[C@H]3c3ccccc3)c2)c1` [II-277], for which the pEC50 reads like this: under setting [1], 5.00 to 6.00; under setting [2], above 6.00. For the same molecule, the “Maximum % activity (with co-corrector)” value under setting [3] is “+++ (≥350)”. The Emax (CSE-HRP, without co-corrector) is above 200%.

`COc1cc(C(F)(F)F)ccc1CN[C@H]1[C@H](C(C)(C)C)[C@@H](C(=O)O)N(C(=O)[C@H](OC)c2ccccc2)[C@H]1c1cccnc1N(C)C` [II-87]: the pEC50 under setting [1] is 5.00 to 6.00 and the pEC50 under setting [2] was 5.00 to 6.00. Further, the “Maximum % activity (with co-corrector)” value under setting [3] was “+++ (≥350)”. Also, the Emax (CSE-HRP, without co-corrector) is 100 to 200%.

As to `COc1ccc(C)cc1CN[C@@H]1[C@@H](C(C)(C)C)[C@H](C(=O)O)N(C(=O)OC(C)C)[C@@H]1c1ccccc1` (racemic) [II-40], the pEC50 runs as follows: under setting [1], 5.00 to 6.00; under setting [2], 5.00 to 6.00. Under setting [3], the “Maximum % activity (with co-corrector)” value is reported as “+++ (≥350)”. In addition, where the note is “CSE-HRP, without co-corrector”, the Emax was in the range of 100 to 200%.

As to `COc1ccc(C(C)(C)C)cc1CN[C@H]1[C@H](C(C)(C)C)[C@@H](C(=O)O)N(C(=O)c2ccc(Oc3ccccn3)cc2)[C@H]1c1ccccc1` [II-224], the pEC50 was 5.00 to 6.00 under setting [1] and above 6.00 under setting [2]. Besides, under setting [3], the “Maximum % activity (with co-corrector)” value is “+++ (≥350)”. The Emax (CSE-HRP, without co-corrector) is above 200%.

For the molecule `COc1ncc(C2CCC2)cc1CN[C@H]1[C@H](C(C)(C)C)[C@@H](C(=O)O)N(C(=O)C2CCCCO2)[C@H]1c1cccnc1N(C)C` (some centres unmarked) [II-491], the Emax under setting [4] was above 200%. For the same molecule, the pEC50 is 5.00 to 6.00 under setting [5] and 5.00 to 6.00 under setting [6]. In addition, the “Maximum % activity (with co-corrector)” value (with co-corrector (2 μM of 3-[(2R,4R)-4-({[1-(2,2-difluoro-1,3-benzodioxol-5-yl)cyclopropyl]carbonyl}amino)-7-methoxy-3,4-dihydro-2H-chromen-2-yl]benzoic acid)) is given as “+++ (≥350)”.
